This note sets out measurements from the OPERA property sets (Mansouri et al. 2018).

Conditions in one data set: not given
By melting point is commonly meant the temperature, or range, at which the solid turns liquid. The molecule `Cc1cc(O)c(C(C)C)cc1C1(c2cc(C(C)C)c(O)cc2C)OC(=O)c2ccccc21` showed a melting point of 253 °C.

In the case of `CC(C)NNC(=O)COc1ccc(Cl)cc1`, the melting point was determined as 93.5 °C.

As usually defined, the boiling point is the temperature of boiling at a given pressure. For `CC(C)OC(=O)OC(C)C`, the boiling point stood at 147 °C.

For the molecule `CCCCC1CCC(=O)O1` (centres undefined), the boiling point was 234 °C.

Regarding `CC(C)CCOC(=O)CC(C)C`, the boiling point amounted to 190 °C and the log10 vapour pressure (mmHg) is -0.0526.

Molecule `CCc1oc2ccccc2c1C(=O)c1cc(I)c(O)c(I)c1` yielded a melting point of 167 °C.

For the molecule `CCCCCCCCCCCCCCCCCCCCCCCCCC(=O)O`, the melting point turned out to be 88.5 °C.

With `COC(C)(C)CC(C)=O`, the boiling point amounted to 160 °C, the log10 vapour pressure (mmHg) is 0.342 and the ready biodegradability result was “not readily biodegradable”.

Regarding `CC(=O)[C@@H]1CC[C@H]2[C@@H]3CCC4=CC(=O)CC[C@]4(C)[C@H]3C(=O)C[C@]12C`, the melting point stood at 172 °C.

For `NNS(=O)(=O)c1ccccc1`, the melting point turned out to be 102 °C.

For the molecule `Oc1ccc(C2CCCCC2)cc1`, the boiling point worked out at 294 °C and the melting point is 133 °C.

On to `Cc1ccccc1N=C(N)Nc1ccccc1C`, for which the ready biodegradability result is “not readily biodegradable”.

`O=C(O)C(Cl)Cl` came in with a boiling point of 194 °C, a log10 Henry constant (atm·m³/mol) of -8.08, a log10 vapour pressure (mmHg) of -0.748 and a melting point of 13.5 °C. In addition, the ready biodegradability result was “readily biodegradable”.

Take `Cc1ccnc(NS(=O)(=O)c2ccc(N)cc2)n1`: the melting point was 236 °C.

Regarding `O=C(C(Cl)Cl)C(Cl)Cl`, the boiling point was 183 °C.

`CC1COC(Cn2cncn2)(c2ccc(Oc3ccc(Cl)cc3)cc2Cl)O1` (centres undefined) gave a log10 vapour pressure (mmHg) of -9.6 and a melting point of 76 °C.

Molecule `CC(Cl)C[N+](=O)[O-]` (centres undefined) returned a boiling point of 172 °C.

`C1=CCNCC1` showed a boiling point of 108 °C and a melting point of -48 °C.

For `C=C1[C@H]2CC[C@@H]3[C@H]2C(C)(C)CCC[C@]13C`, the boiling point was found to be 258 °C.

`Fc1cccc(N=C=S)c1` had a boiling point of 227 °C.

For the molecule `COC(=O)CCCCCCC(=O)OC`, the boiling point is 268 °C and the melting point is -3.1 °C.

Regarding `O=C(O)[C@H]1CCCC[C@H]1C(=O)OC(=O)[C@H]1CCCC[C@H]1C(=O)O`, the ready biodegradability result was “not readily biodegradable”.

`Fc1ccccn1` gave a boiling point of 127 °C.

Take `N#Cc1ccccc1-c1ccccc1`: the melting point was determined as 41 °C.

Take `CC(=O)NCCO`: the melting point worked out at 16 °C.

As for `NCCCNCCCCNCCCN`, the melting point came to 29 °C.

For `CCOC(=O)CSCCC1NC(C(=O)O)CS1` (centres undefined), the melting point was 142 °C.

In the case of `CCCCC(=O)O[C@]1(C(=O)CO)[C@@H](C)C[C@H]2[C@@H]3CCC4=CC(=O)C=C[C@]4(C)[C@@]3(F)[C@@H](O)C[C@@]21C`, the melting point worked out at 184 °C.

`CN1CCCCC1`: the boiling point was found to be 107 °C, the log10 Henry constant (atm·m³/mol) was -4.46, the log10 vapour pressure (mmHg) is 1.29 and the ready biodegradability result is “not readily biodegradable”.

The molecule `O=C(C(F)(F)F)C(F)(F)F` showed a boiling point of -27.4 °C, a log10 vapour pressure (mmHg) of 3.35 and a melting point of -125 °C.

Consider `C[C@]12CC[C@H](O)C[C@@H]1CC[C@@H]1[C@@H]2[C@@H](O)C[C@@]2(C)[C@H]1CC[C@]2(O)C(=O)CO`, for which the melting point turned out to be 244 °C.

For `SC1=NCCCN1`, the melting point came out at 211 °C.

The molecule `c1ccc(-c2cnc(-c3ccc(-c4ncc(-c5ccccc5)o4)cc3)o2)cc1` yielded a melting point of 245 °C.

Consider `CCOC(=O)C(O)(c1ccc(Cl)cc1)c1ccc(Cl)cc1`, for which the log10 Koc (L/kg) is 3.3, the log10 vapour pressure (mmHg) is -5.66, the melting point was determined as 37 °C and the ready biodegradability entry is “not readily biodegradable”.

Take `CCC(C)c1ccccc1O` (centres undefined): the boiling point stood at 228 °C, the melting point worked out at 16 °C and the ready biodegradability entry is “not readily biodegradable”.

The molecule `CCCCCC#CCO` gave a melting point of -18 °C.

Regarding `C=C(C)[C@H](C)O`, the boiling point turned out to be 114 °C.

Molecule `COc1cccc(Nc2ccccc2)c1` showed a melting point of 73 °C.

As to `CC1CCCC(=O)C1` (centres undefined), the boiling point came to 170 °C and the log10 vapour pressure (mmHg) was found to be 0.176.

In turn, `CN(C)c1ccccc1N(C)C` gave a boiling point of 216 °C and a melting point of 8.9 °C.

In turn, `N#CC1CC1` displayed a boiling point of 135 °C.

The molecule `CCOC(=O)C(C)(C)O` returned a boiling point of 150 °C.

As for `N#Cc1ccccc1C#N`, the melting point worked out at 140 °C and the ready biodegradability result was “not readily biodegradable”.

`Oc1ccc2cc(O)ccc2c1` came in with a melting point of 220 °C.

Molecule `Cc1cccc(C(C)C)c1O` showed a boiling point of 226 °C and a melting point of -14.5 °C.

`N=C(N)NC(=O)c1nc(Cl)c(N)nc1N` returned a melting point of 241 °C.

In the case of `CCC1(c2ccc(N)cc2)CCC(=O)NC1=O` (centres undefined), the melting point was found to be 150 °C.

For the molecule `OC[C@H]1O[C@H](O[C@]2(CCl)O[C@H](CCl)[C@@H](O)[C@@H]2O)[C@H](O)[C@@H](O)[C@H]1Cl`, the melting point came out at 130 °C.

Turning to `Clc1ccccc1Cl`, the boiling point was determined as 180 °C, the log10 Henry constant (atm·m³/mol) was -2.72, the log10 Koa came to 4.36 and the log10 Koc (L/kg) was determined as 2.56. Moreover, the log10 vapour pressure (mmHg) is 0.134, the melting point is -16.7 °C and the ready biodegradability entry is recorded as “not readily biodegradable”.

The molecule `CCCCOCCO` registered a boiling point of 168 °C, a log10 Henry constant (atm·m³/mol) of -5.8, a log10 Koc (L/kg) of 1.83 and a log10 vapour pressure (mmHg) of -0.0555. For the same molecule, the melting point was -74.8 °C and the ready biodegradability entry is “readily biodegradable”.

Consider `Cc1cc(Cl)ccc1OCCCC(=O)O`, for which the log10 Koc (L/kg) turned out to be 2.73, the log10 vapour pressure (mmHg) is -6.36 and the melting point came to 100 °C.

`CCCCCCCC1CCCCC1` yielded a boiling point of 244 °C, a log10 vapour pressure (mmHg) of -1.4 and a melting point of -30 °C.

For the molecule `CC(O)(c1ccc(Cl)cc1)c1ccc(Cl)cc1`, the melting point was determined as 70 °C.

Take `CC(C)N(C(=O)CCl)c1ccccc1`: the log10 Koc (L/kg) is 2.42, the log10 vapour pressure (mmHg) is -3.64 and the melting point stood at 77 °C.

Turning to `CCCCOC(=O)CC(C)=O`, the melting point is -35.6 °C and the ready biodegradability entry is “readily biodegradable”.

As for `Clc1cc(Cl)cc(-c2ccc(Cl)c(Cl)c2)c1`, the log10 Henry constant (atm·m³/mol) is -4.05.

With `CCCCOCCOCCOC(=O)CCCCC(=O)OCCOCCOCCCC`, the melting point is -47 °C and the ready biodegradability result is on record as “readily biodegradable”.

The molecule `CCCCCCCCCCCCCCCC(C)=O` had a boiling point of 320 °C and a melting point of 48 °C.

Molecule `Fc1ccc(Oc2ccnc3cc(Cl)cc(Cl)c23)cc1` registered a log10 vapour pressure (mmHg) of -6.82 and a melting point of 107 °C.

Molecule `Nc1ccc(C=O)cc1` displayed a melting point of 71.5 °C.

`COc1cccc(OC)n1` had a boiling point of 179 °C.

As to `CCCCOC(=O)c1ccccc1O`, the boiling point was 271 °C and the melting point is -5.9 °C.

In turn, `C/C=C/C=C/C` returned a boiling point of 80 °C and a melting point of -79 °C.

The molecule `COCC(=O)Cl` registered a boiling point of 112 °C.

In the case of `CCOC(=O)C(F)F`, the boiling point worked out at 100 °C.

Regarding `O=[N+]([O-])c1ccc(Cl)c([N+](=O)[O-])c1`, the boiling point was 315 °C, the log10 vapour pressure (mmHg) is -4.07, the melting point worked out at 53 °C and the ready biodegradability entry was “not readily biodegradable”.

`CCC1(c2ccccc2)NC(=O)N(C)C1=O` (centres undefined) displayed a melting point of 136 °C.

In turn, `CCOC(=O)CCC(=O)OCC` gave a boiling point of 218 °C, a log10 vapour pressure (mmHg) of -1.36 and a melting point of -21 °C.

The molecule `Oc1ccc2c(c1)[C@@]13CCCC[C@H]1[C@@H](C2)N(CC1CC1)CC3` displayed a melting point of 188 °C.

`CC/C=C\CCCC` returned a boiling point of 123 °C and a melting point of -118 °C.

The data set is the same for the next values; noted with them: fish.
Consider `COc1c(Cl)cc(Cl)c(Cl)c1Cl`, for which the log10 BCF amounted to 3.34.

In the case of `Brc1cc(Br)c(Oc2c(Br)c(Br)c(Br)c(Br)c2Br)c(Br)c1`, the log10 BCF is 5.75.

`CN1CCCCC1` showed a log10 BCF of 0.65.

`CCOC(=O)C(O)(c1ccc(Cl)cc1)c1ccc(Cl)cc1`: the log10 BCF was found to be 2.68 and the log10 biotransformation half-life (days) is -0.08.

Molecule `N#Cc1ccccc1C#N` yielded a log10 BCF of 0.7 and a log10 biotransformation half-life (days) of -0.67.

Molecule `Clc1ccccc1Cl` returned a log10 BCF of 2.43 and a log10 biotransformation half-life (days) of 0.5.

The molecule `CCCCCCCC1CCCCC1` registered a log10 biotransformation half-life (days) of 0.17.
